According to PubChem BioAssay (NCI):
Values joined by “and” are separate entries in the source; they are usually repeats but may differ in a detail not shown here. Equal values may be shown once.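 Cells were grown in 96-well plates and exposed to each compound for 48 hours at five concentrations; endpoints were interpolated linearly between bracketing concentrations, or set to the highest concentration if not reached. The concentration for 50% growth inhibition is given as GI50. TGI: total growth inhibition.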

Legend:
Experiment in all cases: growth of human tumour cells (NCI), 48 h
[1] = tested on: K-562 leukemia
[2] = tested on: UO-31 renal
[3] = tested on: SN12C renal
[4] = tested on: SK-MEL-28 melanoma
[5] = tested on: OVCAR-3 ovarian
[6] = tested on: TK-10 renal
[7] = tested on: MALME-3M melanoma
[8] = tested on: RXF 393 renal
[9] = tested on: CCRF-CEM leukemia
[10] = tested on: SF-268 CNS

Compound	TGI [1] [µM]	TGI [2]	TGI [3] [µM]	TGI [4]	TGI [5]	TGI [6] [µM]	TGI [7]	TGI [8]	TGI [9] [µM]	TGI [10] [µM]	GI50 [1]	GI50 [3]	GI50 [4]	GI50 [5]	GI50 [6]	GI50 [9]
C=CCOC1=C(OC(C)=O)C(C2COC(C)(C)O2)OC1=O (stereo not given)	35.9	33 µM	70.8	46.7 µM	31.9 µM	68.7	35.1 µM	46.3 µM	41.7	> 100	–	–	–	–	–	–
Oc1ccccc1/C=N/N1C(=S)N(c2ccccc2)C(=Nc2ccccc2)C1=Nc1ccccc1	> 64.7	33.1 µM	28.2	80.5 µM	28.2 µM	20.8	> 54.6 µM	18.1 µM	> 62.9	26.7	–	–	–	–	–	–
COc1ccc2oc(=O)c(-c3nc4ccccc4s3)cc2c1	> 100	> 41.6 µM	> 100	> 100 µM	43.7 µM	> 100	28.2 µM	31 µM	> 75.6	> 100	–	–	–	–	–	–
Cc1cn(C2CC(/[N+]([O-])=N\Nc3ccc([N+](=O)[O-])cc3)C(CO)O2)c(=O)[nH]c1=O (stereo not given)	> 100	> 100 µM	> 100	> 100 µM	> 100 µM	> 100	> 100 µM	> 100 µM	> 100	> 100	–	–	–	–	–	–
O=C1N(c2ccccc2)N=C2c3ccncc3C3=NN(c4ccccc4)C(=O)C123 (stereo not given)	> 100	> 100 µM	> 100	> 100 µM	> 100 µM	> 100	> 100 µM	> 100 µM	> 100	> 100	–	–	–	–	–	–
O=C1C=C(NCCc2ccc(O)cc2)C(=O)C=C1NCCc1ccc(O)cc1	> 100	> 100 µM	> 100	> 100 µM	> 100 µM	> 100	> 100 µM	> 100 µM	> 100	> 100	–	–	–	–	–	–
CC(C)N=C(NC#N)NS(=O)(=O)c1cnccc1NC1CCCCCCC1	> 100	> 100 µM	> 100	> 100 µM	> 100 µM	> 100	> 100 µM	> 100 µM	> 100	> 100	–	–	–	–	–	–
Nc1[nH]nc2c1Cc1c(n(Cc3ccc(Cl)cc3)c3ccccc13)C(=O)N2	> 100	19.4 µM	28	> 100 µM	30.5 µM	35	52.3 µM	25.9 µM	26.6	47.8	–	–	–	–	–	–
C[C@H](N)C(=O)Nc1ccc(-c2nc3ccccc3s2)cc1Cl	36.8	22.9 µM	30	27.7 µM	19.2 µM	14.7	41.4 µM	30.2 µM	29.3	43.7	–	–	–	–	–	–
CCN(CC)C(=O)CCNC(C)Cc1c[nH]c2ccccc12 (stereo not given)	> 100	> 100 µM	> 100	> 100 µM	> 100 µM	> 100	> 100 µM	> 100 µM	> 100	> 100	–	–	–	–	–	–
CC1(C)C/C=C\CCC(O)C(O)CCC(C)(C)C1=O (stereo not given)	> 100	> 100 µM	> 100	> 100 µM	> 100 µM	> 100	> 100 µM	> 100 µM	> 100	> 100	–	–	–	–	–	–
FC(F)(F)c1ccc(N=NN2CCCC2)cc1	> 100	> 100 µM	> 100	> 100 µM	> 100 µM	> 100	> 100 µM	> 100 µM	> 100	> 100	–	–	–	–	–	–
CNC(=S)c1nnsc1N	> 100	> 100 µM	> 100	> 100 µM	> 100 µM	> 100	> 100 µM	> 100 µM	> 100	> 100	–	–	–	–	–	–
CCN(CC)CCCNc1c2cc(OC)ccc2nc2cccc([N+](=O)[O-])c12	0.104	0.174 µM	0.402	0.534 µM	0.176 µM	0.569	0.263 µM	0.23 µM	0.582	0.593	–	–	–	–	–	–
Cc1nc2c(ccc3[nH]c4ccccc4c32)s1	> 100	74.8 µM	76.9	60.3 µM	64.1 µM	78.1	> 100 µM	> 100 µM	> 100	> 100	–	–	–	–	–	–
CC(=O)Oc1ccc(C2SCc3nc4ccccc4n32)cc1 (stereo not given)	> 100	> 61.5 µM	> 100	> 100 µM	> 100 µM	> 100	> 100 µM	77.3 µM	> 100	70.8	–	–	–	–	–	–
O=C(CCCN1CCC(Nc2ccc(F)cc2)(c2nnnn2C2CCCCC2)CC1)c1ccc(F)cc1	> 100	28.4 µM	> 100	30.5 µM	31.8 µM	29.4	> 100 µM	25.5 µM	> 100	33.9	–	–	–	–	–	–

Compound	TGI [1] [µM]	TGI [2]	TGI [3] [µM]	TGI [4]	TGI [5]	TGI [6] [µM]	TGI [7]	TGI [8]	TGI [9] [µM]	TGI [10] [µM]	GI50 [1]	GI50 [3]	GI50 [4]	GI50 [5]	GI50 [6]	GI50 [9]
O=C1OCC(CN2CCC(n3c(=O)[nH]c4ccccc43)CC2)=C1c1ccccc1	> 100	35.2 µM	53.1	61 µM	60.6 µM	63.1	56.6 µM	> 100 µM	60.5	95.5	–	–	–	–	–	–
CN(C)CCNc1nc2c(c(=O)n(C)c(=O)n2C)n1C	> 100	> 100 µM	> 100	> 100 µM	> 100 µM	> 100	> 100 µM	> 100 µM	> 100	> 100	–	–	–	–	–	–
O=[N+]([O-])C(=C(\Cl)NCCO)/C(Cl)=C(/Cl)Br	2.97	10.6 µM	5.77	5.51 µM	2.62 µM	4.91	3.8 µM	5.95 µM	2.01	4.56	–	–	–	–	–	–
NC(=O)NC(=O)c1cccc(C(=O)NC(N)=O)n1	> 100	> 100 µM	> 100	> 100 µM	> 100 µM	> 100	> 100 µM	> 100 µM	> 100	> 100	–	–	–	–	–	–
CCOC(=O)CCNC(=O)c1cc(C)cc2c1Oc1c(cc(C)cc1C(=O)NCCC(=O)OCC)S2	> 100	> 100 µM	> 100	> 100 µM	> 100 µM	> 100	> 100 µM	58 µM	> 100	> 100	–	–	–	–	–	–
CN(C)C=Nc1cccc2c1NSN2	> 100	> 100 µM	> 100	> 100 µM	> 100 µM	> 100	> 100 µM	> 100 µM	> 100	> 100	–	–	–	–	–	–
O=CC1C(=O)Nc2nc3ccccc3n2C1c1ccccc1 (stereo not given)	35.3	27.4 µM	28.2	46.4 µM	20.7 µM	71.6	53.7 µM	16 µM	75.2	27	–	–	–	–	–	–
O=C1CN2CCN(CC2)CC(=O)Nc2ccc(cc2)S(=O)(=O)c2ccc(cc2)NC(=O)CN2CCN(CC2)CC(=O)Nc2ccc(cc2)S(=O)(=O)c2ccc(cc2)N1	> 100	> 100 µM	> 100	> 100 µM	> 100 µM	> 100	38.8 µM	> 100 µM	1.81	38.7	–	–	–	–	–	–
COc1ccc(Nc2cnc3cc(N)ccc3n2)cc1OC	> 100	> 100 µM	> 100	> 100 µM	> 100 µM	> 100	> 100 µM	> 100 µM	> 100	> 100	–	–	–	–	–	–
Cc1nc2ccccc2n1Cc1ccc(NC(=S)NC2CCCCC2)cc1	> 100	> 100 µM	> 100	> 100 µM	> 70.3 µM	> 100	> 100 µM	> 100 µM	> 100	> 100	–	–	–	–	–	–
O=C(Nc1ccccn1)c1cc2c(cc1Cl)Sc1nccn1S2(=O)=O	> 100	94.9 µM	> 100	> 100 µM	> 100 µM	> 100	> 100 µM	93.9 µM	95.9	> 100	–	–	–	–	–	–
CCOC1=NC(C(F)(F)F)(C(F)(F)F)N=C(/N=C(/N)N(C)C(C(C)C)P(=O)(OC(C)C)OC(C)C)O1 (stereo not given)	> 100	> 100 µM	> 100	> 100 µM	> 100 µM	> 100	> 100 µM	> 100 µM	83.5	> 100	–	–	–	–	–	–
O=c1ccc2c(Cl)sc(Cl)c2[nH]1	> 100	> 100 µM	> 100	> 100 µM	> 100 µM	> 100	> 100 µM	> 100 µM	> 100	> 100	–	–	–	–	–	–
CC(=O)Nc1ccc2cc3c(nc2n1)c1cccnc1n3S(=O)(=O)c1ccccc1	> 100	> 100 µM	> 100	> 100 µM	> 100 µM	> 100	> 100 µM	> 100 µM	> 100	> 100	–	–	–	–	–	–
COC(=O)/C=C/c1cc(OC)c2c(c1)C(C(=O)OC)C(c1ccc(O)c(OC)c1)O2 (stereo not given)	> 50.3	> 43.7 µM and 45.1 µM and 77.2 µM	> 100	> 100 µM and > 70.4 µM and 86.7 µM	> 27 µM and > 25.6 µM and 19.8 µM	> 100	> 100 µM and 37.4 µM	9.76 µM and 7.8 µM and > 43.6 µM	–	> 100	1.51 µM and 1.11 µM and 0.579 µM	13.9 µM and 9.44 µM and 4.63 µM	> 56.3 µM and 18.9 µM and 9.69 µM	4.97 µM and 3.89 µM and 2 µM	47.5 µM and 15.6 µM and 15.3 µM	3.4 µM and 3.35 µM and 0.699 µM
COC1=C2C[C@](OC)(C#CC=CC#CC2O)CC1(C)C (stereo not given in full)	> 100	80.3 µM	> 100	> 100 µM	> 100 µM	> 100	> 100 µM	> 100 µM	> 100	> 100	–	–	–	–	–	–
